The target in assay [1] is T1, HCV NS3/4A protease complex, BMS strain (UniProt P27958, species not given/STRAIN_BMS).
T1 construct: other: BMS strain; said of H77 and J4L6S; fused on or other part: A three-lysine solubilising tail at the C-terminus of NS4A; A His tag is implied by the pET21b vector and Ni-NTA purification; Both are printed for the H77 and J4L6S constructs and apply to BMS by inference
In words: FRET peptide assay to monitor HCV NS3/4A proteolytic activity (BMS strain). In kind it is biochemical, Hepatitis C virus (genotype 1a). The following applies: read-out: IC50 against the NS3/4A BMS strain in the enzyme assay; BMS strain. The gist of the method: (§1)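 Inhibition measured by real-time fluorescence increase as the protease cleaves RET S1 FRET depsipeptide (2 μM final). Enzyme: >90% pure BMS-strain (1a) NS3/4A at 2-3 nM final, or 300 pM with 50 μg/ml BSA for potent compounds. Buffer: 50 mM HEPES pH 7.5, 0.15 M NaCl, 0.1% Triton, 15% glycerol, 10 mM βME.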
T1 sequence (P27958 1027-1657, change not shown, one chain of several): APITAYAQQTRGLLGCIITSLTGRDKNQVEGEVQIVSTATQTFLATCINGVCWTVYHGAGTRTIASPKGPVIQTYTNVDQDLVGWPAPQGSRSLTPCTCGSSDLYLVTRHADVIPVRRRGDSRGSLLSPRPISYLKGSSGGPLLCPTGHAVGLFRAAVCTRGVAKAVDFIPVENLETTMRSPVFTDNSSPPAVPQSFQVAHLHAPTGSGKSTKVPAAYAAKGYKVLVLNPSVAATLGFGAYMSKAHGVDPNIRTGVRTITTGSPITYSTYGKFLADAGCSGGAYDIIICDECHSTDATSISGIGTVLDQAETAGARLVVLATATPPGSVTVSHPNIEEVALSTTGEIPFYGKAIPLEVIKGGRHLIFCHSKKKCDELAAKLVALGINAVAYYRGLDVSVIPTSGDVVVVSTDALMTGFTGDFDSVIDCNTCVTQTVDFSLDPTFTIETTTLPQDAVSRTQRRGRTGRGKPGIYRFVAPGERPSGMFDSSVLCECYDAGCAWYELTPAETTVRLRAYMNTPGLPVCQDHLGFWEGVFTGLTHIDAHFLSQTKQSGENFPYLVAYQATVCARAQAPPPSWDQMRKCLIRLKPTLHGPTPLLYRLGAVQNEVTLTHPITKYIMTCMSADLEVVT

For assay [2], the target named is T2, HCV NS3/4A protease complex, BMS strain (UniProt P27958, species not given/STRAIN_BMS).
T2 construct: other: NS3/4A BMS strain; activity range class; numeric values, unit not given; said of H77 and J4L6S; fused on or other part: A three-lysine solubilising tail at the C-terminus of NS4A; A His tag is implied by the pET21b vector and Ni-NTA purification; Both are printed for the H77 and J4L6S constructs and apply to BMS by inference
Described as above. Format: biochemical, Hepatitis C virus (genotype 1a). Conditions: read-out: HCV Protease (IC50); NS3/4A BMS strain; activity range class. The gist of the method: as §1
T2 sequence (P27958 1027-1657, change not shown, one chain of several): as above

Assay [3] has as its target T3, human liver cathepsin B (Homo sapiens, UniProt P07858).
T3 construct: purchased Sigma, EMDbiosciences; host or cells: human liver
Put plainly: Specificity assay, cathepsin B. In kind it is biochemical. Conditions: read-out: Cathepsin B activity in the specificity assays (IC50). Here is the method: The specificities of compounds of the present disclosure were determined against a variety of serine proteases: human neutrophil elastase (HNE), porcine pancreatic elastase (PPE) and human pancreatic chymotrypsin and one cysteine protease: human liver cathepsin B. In all cases a 96-well plate format protocol using either colorimetric p-nitroaniline (pNA) substrate or fluorometric Amino-Methyl-Coumarin (AMC) specific for each enzyme was used as described previously (PCT Patent Application No. WO 00/09543) with some modifications to the serine protease assays. All enzymes were purchased from Sigma, EMDbiosciences while the substrates were from Bachem, Sigma and EMDbiosciences.
The pNA assay for Chymotrypsin included a 1 h enzyme-inhibitor pre-incubation at room temperature followed by addition of substrate and hydrolysis to ˜15% conversion as measured on a Spectramax Pro microplate reader. Compound concentrations varied from 100 to 0.4 μM depending on their potency. Cathepsin B, HNE, and PPE assays each was initiated by addition of substrate to enzyme-inhibitor pre-incubated for 10 min at room temperature and hydrolysis to 15% conversion as measured on cytofluor. […]
The percentage of inhibition was calculated using the formula: [1−((UVinh−UVblank)/(UVctl−UVblank))]×100 […]

Where two headings read alike, the source gives them in different places.

As to `C=C[C@@H]1C[C@]1(NC(=O)[C@@H]1C[C@@H](Oc2nc(N(C)C)cc3cc(OC)ccc23)CN1C(=O)C(Nc1cc(C)cc(C)n1)C(C)(C)C)C(=O)NS(=O)(=O)C1CC1` (single isomer, unassigned) [Compound 18], the IC50 in assay [1] was 3.4 nM; in assay [2], 0.6 to 20 nM; in assay [3], > 50000 nM.

(Values after patent US7772180B2, “Hepatitis C virus inhibitors” (Bristol-Myers Squibb Company, priority 2006, dated 2010).)
